# Measurements from patent publication US5968920A, “Compounds having a benzisoselen-azoline and -azine structure, method for preparing same and therapeutic uses thereof” (Oxis Isle of Man, Limited, priority 1994, dated 1999).
# Legend:
# [1] = Glutathione peroxidase activity, t-BuOOH as hydroperoxide; assay type: biochemical; details: compound 20 μM, pH = 7.3, 37° C., [GSH] = 2 mM
# Procedure: (§1) To 1.5 ml of HEPES buffer, 50 mM, pH=7.3, containing 0.2 mM of DTPA, 0.144 mM of NADPH, 2.2 mM of reduced glutathione and 1.1 U/ml of glutathione disulfide reductase, pre-equilibrated for 2 minutes at 37° C., 100 μl of an ethanolic mother solution of the compound to be tested or 100 μl of absolute ethanol (blank) was added. Each compound was tested at a final concentration of 20 μM.
# (§2) Subsequently, 50 μl of the following was added:
# tertiobutyl hydroperoxide (t-BuOOH), 6.6 mM in ultrapure water;
# (§3) or the hydroperoxide of linoleic acid (18:2-OOH) prepared using soya lipoxygenase (see M. O. Funk et al., Lipids, (1976), 11, pp 113-117), 3.3 mM in a water/methanol mixture, 85/15 (V/V). The glutathione peroxidase activity was measured at 37° C. by measuring the reduction in absorbance at 340 nm over 5 minutes. The initial enzymatic rate or activity was proportional to the slope of the plot of absorbance against time.
# (§4) They are expressed in nmoles of hydroperoxide reduced per minute.
# [2] = test system: P-selectin; assay: Endothelial expression of P-selectin induced by TNF-α (ELISA); assay type: cell-based; details: Homo sapiens, Endothelial cell; compound 10 μM; TNF-α 1 ng/ml; 3 to 4 hours; read-out: inhibition of TNF-α induced increase in expression of P-selectin
# Procedure: Human endothelial cells were cultivated under the same conditions as those described for Example 18. When the cells were near confluence, they were incubated for one hour in the presence or absence of BXT-51072 at 10 μM in culture medium containing 2% of foetal calf serum, all other conditions being the same. The cells were then washed three times with a PBS buffer. The cells which had not been pretreated by a compound were incubated in the presence or absence (control) of TNF-α, at 1 ng/ml, in the same culture medium. The pretreated cells were incubated under the same conditions, but the medium also contained BXT-51072 at 10 μM. After 3 to 4 hours of incubation, the cells were washed with a PBS buffer and fixed with 2% formaldehyde in a PBS buffer.
# [3] = test system: endothelial cells; assay: Endothelial changes induced by PMN and TNF-α (von Willebrandt factor release); assay type: cell-based, human; details: BXT compounds 10 μM, pentoxifylline 50 μM; TNF-α 1 ng/ml; 3.5 h
# Procedure: (§5) Human endothelial cells were cultivated under the same conditions as those described for Example 18.
# When the cells were near confluence, they were incubated for one hour in the presence or absence of the following compounds: BXT-51072, BXT-51077 or pentoxifylline. Compounds BXT-51072 and BXT-51077, each at 10 μM, and the pentoxifylline, at 50 μM, were incorporated in culture medium containing 2% of foetal calf serum, all other conditions being the same. […] Myeloperoxidase (MPO), an enzyme specifically contained in PMNs, was then measured in the cell lysates obtained to evaluate adhesion of the PMNs on the endothelial cells. The von Willebrandt factor (vWf) liberated in the culture medium by the endothelial cells was measured after three and a half hours of incubation, as a label of the changes in the cells.
# Incubation of the endothelial cells in the presence of PMN and TNF-α led to a very significant increase in the quantity of MPO and vWf with respect to the respective controls (PMN alone, and endothelial cells alone respectively), meaning the adhesion of activated PMNs to the endothelial cells and changes in the latter.
# They are expressed as the percentage inhibition by referring the MPO and vWf measurements to the respective concentrations of MPO and vWf determined when the endothelial cells were incubated with TNF-α and PMNs.
# [4] = Glutathione peroxidase activity, hydrogen peroxide; assay type: biochemical; details: compound 20 μM, pH = 7.3, 37° C., [GSH] = 2 mM
# Procedure: as §1, §2
# or hydrogen peroxide (H2 O2), 1.6 mM in ultrapure water;
# as §3, §4
# [5] = test system: von Willebrandt factor (vWf); assay: Protection of endothelial cells against interleukin 1 (von Willebrandt factor release); assay type: cell-based; details: Homo sapiens, Endothelial cell; compound 10 μM; IL-1α 50 U/ml; 4 h; compound present or not during IL-1 incubation; read-out: inhibition of increase in vWf liberation induced by IL-1
# Procedure: as §5
# When the cells were near confluence, they were incubated for one hour in the presence or absence of the following compounds: BXT-51072, BXT-51077, each of these compounds being at 10 μM in culture medium containing 2% of foetal calf serum , all other conditions being the same. The cells were then washed three times with a PBS buffer. The cells which had not been pretreated by a compound were incubated in the presence or absence (control) of interleukin 1α (IL-1α), at 50 U/ml, in the same culture medium. […] After four hours of incubation, the von Willebrandt factor (vWf) in the culture medium was measured.
smiles,measurement,setting,value
"CC1(C)CN[Se]c2ccccc21 [BXT-51072, 4,4-dimethyl-benzisoselenazine]","Glutathione peroxidase activity, t--BuOOH",[1],27.4 nmoles of hydroperoxide reduced/min
same,inhibition at 10 µM,[2],> 90%
same,protection of endothelial cells against the deleterious effects of activated PMNs (vWf),[3],protect endothelial cells against the deleterious effects of activated PMNs
same,"Glutathione peroxidase activity, H2 O2",[4],42.0 nmoles of hydroperoxide reduced/min
same,inhibition at 10 µM,[5],> 70%
